Measurements from publication PMC7552967, “Anti-Melanoma Activities of Artemisone and Prenylated Amino-Artemisinins in Combination With Known Anticancer Drugs” (Frontiers in Pharmacology, 2020).

Experiments:
A375 melanoma cells [1] = assay: MTT cell viability assay, A375; type: cell-based, human; conditions: for IC50: MTT, 24 h, combinations 1:1
Description: (§1) The human cell lines TK10 (human kidney adenocarcinoma), UACC62 (human melanoma) and MCF7 (human breast adenocarcinoma) were obtained from the National Cancer Institute (NCI) as part of a panel widely studied for drug screening and molecular target identification. […] The nontumorigenic human immortalized keratinocyte (HaCaT) cells were a kind donation by the School of Anatomical Sciences, Faculty of Health Sciences, University of the Witwatersrand, South Africa. […] All reagents were of analytical grade and were obtained from Merck (Darmstadt, Germany) unless stated otherwise. Cells were cultured in Dulbecco’s modified essential medium (DMEM; Hyclone, GE healthcare, South Logan, UT, USA) containing 10% fetal bovine serum (FBS), 1% penicillin/streptomycin, 1% 200 mM L-Glutamine and 1% nonessential amino acids (Lonza, Basel, Switzerland) at 37°C in a humidified atmosphere of 5% CO2. Stock solutions of the compounds were prepared in dimethyl sulfoxide (DMSO). All subsequent dilutions were prepared in serum-free DMEM and vehicle controls were included in all experiments
(§2) The growth inhibitory effects of the compounds were tested in the 3-cell line panel consisting of TK10 (renal), UACC62 (melanoma) and MCF7 (breast) cancer cells by Sulforhodamine B (SRB) assay. […] Compounds prepared in DMSO were tested at 0.01–100 µM serial dilutions to establish initial inhibitory concentrations. […] After 24 h exposure to compounds, growth medium was removed, cells rinsed twice with 1 ml of phosphate buffered saline (PBS) and 100 µl fresh serum-free medium containing 5 mg/ml MTT solution was added MTT solution was prepared fresh for each analysis). Cells were then incubated for 4 h at 37°C, after which the MTT was removed and substituted with 100 µl dimethyl sulfoxide (DMSO) to dissolve the formazan crystals for an h at 37°C. After incubation, cell viability was determined using a microplate reader (BioTek®, Vermont, USA) at an excitation wavelength of 560 nm and emission wavelength of 630 nm with DMSO measured as a blank. Cell viability was expressed as a percentage relative to the untreated control, which is assumed to be 100% viable. For a positive control, cells were treated with 0.01% Triton-X 100 (Sigma-Aldrich, St Louis, MO, USA) for a period of 4 h. Using the MTT assay data, IC50 values were calculated using GraphPad Prism 8. Data were normalized to the positive (alleged to be 0% viable) and negative controls (presumed to be 100% viable), followed by the log-transformation of the concentration values. […] A crude therapeutic index (fold decrease in IC50 value) was calculated as the IC50 of the noncancerous cell-line/IC50 of the cancerous cell line. […] Drug interactions were evaluated for synergism, additivity or antagonism using multiple drug effect analysis, based on the median-principle. Cells were treated with the drug combinations for 24 h and analyzed. The CompuSyn (ComboSyn, Inc. NJ, USA) software package was used to generate the median-effect plots and combination index plots. […] All experiments were performed at least in triplicate and repeated independently.
(§3) Next, the quantitative colorimetric MTT assay was used to determine in vitro cell viability with A375 (melanoma) and HaCat (nonmalignant keratinocyte) cells. […] The IC50 was used to determine a crude therapeutic index (fold increase or decline in IC50).

[2] = system: HaCat normal keratinocytes; assay: LDH release membrane integrity assay, HaCat; conditions: compounds at their IC50 concentrations, 24 h; combinations 1:1; relative to maximum release
Description: (§4) In order to determine cell membrane integrity, the CytoTox-ONE™ Homogeneous Membrane Integrity Assay (Promega, Madison, WO, USA) was employed. This fluorometric assay measures the release of LDH from cells with damaged cell membranes. […] The manufacturer’s instructions were followed to determine the fluorescence at an excitation wavelength of 560 nm and an emission wavelength of 590 nm. In order to calculate the percentage cytotoxicity, the average fluorescent values of the background medium were subtracted from all average fluorescent values of the experimental samples and the positive control. Cytotoxicity is expressed as a percentage relative to the positive control, which is assumed to be responsible for 100% LDH release. The fold increase in LDH release was taken as the indication of the selectivity toward melanoma cell membranes, calculated as the […]. All experiments were performed at least in triplicate and independently repeated. Statistical significant differences were calculated with one-way ANOVA.
(§5) Results are expressed relative to the untreated control and the maximum release sample, which was set as having 0% and 100% LDH release respectively. The LDH released from the nonmalignant HaCat cells and the A375 melanoma cells was then used to deduce the selectivity of the compounds against melanoma cell membranes.

[3] = system: HaCat normal keratinocytes; assay: Intracellular ROS, DCFH-DA assay, HaCat; type: cell-based, human; conditions: 12 h treatment, result in words
Procedure: HaCat and A375 cells were seeded at 25,000 cells/well in 96-well plates (Black plate, Clear bottom, Corning, Costar®, NY, USA) and incubated until cells were ~90% confluent. Serum-free DMEM without phenol red (Thermo Fisher Scientific, Gibco, Carlsbad, CA, USA) was used for all experiments. Cells were exposed to compounds or H2O2 (500 µM) for 12 h. Cell staining with ROS fluorescent indicator 2’,7’-dichlorodihydrofluorescein diacetate (DCFH-DA) was performed 1.5 h before the end of the 12-h exposure time. A kinetic analysis was then performed at 37°C using a microplate reader (SpectraMax® ParadigmTM Molecular Devices, Sunnyvale, CA, USA) by measuring the DCF fluorescence (excitation 485 nm and emission 535 nm) every 10 min for 1 h. […] The Bradford assay (Coomassie blue colorimetric method) was then performed in order to determine the relative amount of protein per well, as an indication of cell number per well, and all fluorescence measurements were normalized relative to the cell number. The background fluorescence produced by blank medium controls and unstained but treated cell controls were subtracted from DCFH-DA stained cells. The DCF fluorescence measured at the beginning of the analysis (time 0) was subtracted from the DCF fluorescence at the indicated times for the kinetic analysis (results not shown). […]
The levels of intracellular ROS were determined using the DCFH-DA assay. […]

[4] = system: HaCat normal keratinocytes; assay: MTT cell viability assay, HaCat; type: cell-based, human; conditions: 24 h; for CC50: Homo sapiens, HaCaT, combinations 1:1, mean ± SD, read-out: HaCat IC50
Description: as §1, §2, §3

A375 melanoma cells [5] = assay: LDH release membrane integrity assay, A375; type: cell-based, human; conditions: for LDH release, result in words: IC50 concentrations, 24 h (Table 3, Figure 6C); for A375 (% LDH release): compounds at their IC50 concentrations, 24 h, combinations 1:1, relative to maximum release
Description: as §4, §5

| HaCat (% LDH release) [2] | IC50 (A375 melanoma cells [1]; Homo sapiens, A-375, mean ± SD) | SMILES | Therapeutic index (TI) (A375 melanoma cells [1]; IC50 of HaCat cells/IC50 of A375 cells) | IC50 (A375 melanoma cells [1]; results from elesclomol-Cu(II) reported in nM) | Intracellular ROS (DCF fluorescence fold change vs untreated control) [3] | IC50 ([4]; results from elesclomol-Cu(II) reported in nM, combinations 1:1) | LDH release, result in words (A375 melanoma cells [5]) | A375 (% LDH release) (A375 melanoma cells [5]) | Fold increase in LDH release (A375 melanoma cells [5]; selectivity toward melanoma cell membranes, A375 vs HaCat) | CC50 [4] |
| --- | --- | --- | --- | --- | --- | --- | --- | --- | --- | --- |
| 7 ± 0.31% | 43700 ± 1370 nM | COc1cc([C@@H]2c3cc4c(cc3[C@@H](O[C@@H]3O[C@@H]5CO[C@@H](C)O[C@H]5[C@H](O)[C@H]3O)[C@H]3COC(=O)[C@H]23)OCO4)cc(OC)c1O [Etoposide 9, etoposide] | – | – | – | – | did not significantly increase the release of LDH | 11 ± 0.56% | – | > 13000 µM |
| 35 ± 1.02% | 569800 ± 2950 nM | O=C(O)c1cc(/N=N/c2ccc(S(=O)(=O)Nc3ccccn3)cc2)ccc1O [Sulfasalazine 8, sulfasalazine] | – | – | – | – | did not significantly increase the release of LDH | 21 ± 0.96% | – | 2223 ± 5.37 µM |

| SMILES | HaCat (% LDH release) [2] | IC50 (A375 melanoma cells [1]; Homo sapiens, A-375, mean ± SD) | Therapeutic index (TI) (A375 melanoma cells [1]; IC50 of HaCat cells/IC50 of A375 cells) | IC50 (A375 melanoma cells [1]; results from elesclomol-Cu(II) reported in nM) | Intracellular ROS (DCF fluorescence fold change vs untreated control) [3] | IC50 ([4]; results from elesclomol-Cu(II) reported in nM, combinations 1:1) | LDH release, result in words (A375 melanoma cells [5]) | A375 (% LDH release) (A375 melanoma cells [5]) | Fold increase in LDH release (A375 melanoma cells [5]; selectivity toward melanoma cell membranes, A375 vs HaCat) | CC50 [4] |
| --- | --- | --- | --- | --- | --- | --- | --- | --- | --- | --- |
| CN([N-]C(=O)CC(=O)[N-]N(C)C(=[SH+])c1ccccc1)C(=[SH+])c1ccccc1.[Cu] [Elesclomol-Cu(II) 1-Cu, elesclomol-Cu(II)] | 16 ± 0.79% | – | 2.8 | 1.72 ± 0.23 nM | no significant increased intracellular ROS | 4.88 ± 0.56 nM | did not significantly increase the release of LDH | 21 ± 0.94% | 1.3 | – |
